Assay results from paper PMC8815882, “Screening the pandemic response box identified benzimidazole carbamates, Olorofim and ravuconazole as promising drug candidates for the treatment of eumycetoma” (PLoS Neglected Tropical Diseases, 2022).
pIC50: −log10 of the molar value. Values after ≈ are worked out from the molar mass of the structure shown. Where two headings read alike, the source gives them in different places. Values belong to the molecule of their own block, whether it stands above or below them.

How the values were obtained:
[1] = system: M. mycetomatis genome strain MM55; assay: CLSI M38-A2 based in vitro susceptibility screening (XTT or resazurin), growth at fixed concentration; format: cell-based, Madurella mycetomatis
[2] = system: M. pseudomycetomatis strain Mex2A; assay: CLSI M38-A2 based in vitro susceptibility screening at 25 μM; format: cell-based, Madurella pseudomycetomatis; conditions: selected if >75% (resazurin) or >80% (XTT) fungal growth inhibited
[3] = system: M. tropicana strain CBS206.47; assay: as above; format: cell-based, Madurella tropicana; conditions: selected if >75% (resazurin) or >80% (XTT) fungal growth inhibited
[4] = system: F. senegalensis strain CBS132257; assay: as above; format: cell-based, Falciformispora senegalensis; conditions: selected if >75% (resazurin) or >80% (XTT) fungal growth inhibited
[5] = system: Me. romeroi strain CBS128765; assay: as above; format: cell-based, Medicopsis romeroi; conditions: selected if >75% (resazurin) or >80% (XTT) fungal growth inhibited
M. mycetomatis MM55 = assay: IC50 determination, 2-fold dilution series 16 to 0.03125 μM; format: cell-based, Madurella mycetomatis; conditions: for pIC50 / IC90: Madurella mycetomatis
[6] = system: ten different M. mycetomatis isolates; assay: MIC / MIC50 determination (XTT) in ten M. mycetomatis isolates; format: cell-based, Madurella mycetomatis; conditions: Madurella mycetomatis
[7] = system: M. mycetomatis isolate MM55; assay: M. mycetomatis grain infection model in G. mellonella larvae, survival; format: in vivo, Galleria mellonella; set-up: In vivo efficacy, Larvae survival %: concentration or dose not given beside the values
[8] = system: M. mycetomatis genome strain MM55; set-up: method as in PMID 29698504; conditions: parasitic DHODH inhibitors of the MMV Pathogen Box screened previously; cited from earlier work
M. mycetomatis = assay: Drug static or cidal determination; format: cell-based, Madurella mycetomatis
Excerpt: Supplement pntd.0010159.s001.xlsx, sheet "Pandemic Box Master sheet" | column: Drug static or cidal

[9] = Madurella mycetomatis, replicate A, read-out: Percentage survival at 25um, 25 um A
[10] = Madurella mycetomatis, replicate B, read-out: Percentage survival at 25um, 25 uM B
[11] = Madurella mycetomatis, replicate C, read-out: Percentage survival at 25um, 25 uM C
[12] = MM55, Table 2, M. mycetomatis MM55, read-out: IC50
[13] = MM55, replicate 1, read-out: IC50 1
[14] = MM55, replicate 1, read-out: IC90 1
[15] = MM55, replicate 2, read-out: IC50 2
[16] = MM55, replicate 2, read-out: IC90 2
[17] = MM55, replicate 3, read-out: IC50 3
[18] = MM55, replicate 3, read-out: IC90 3
[19] = median MIC over ten M. mycetomatis isolates, no asterisk, read-out: MIC50
[20] = isolate CBS247.48, read-out: MIC CBS247.48
[21] = isolate MM14, read-out: MIC MM14
[22] = isolate MM45, read-out: MIC MM45
[23] = isolate MM55, read-out: MIC MM55
[24] = isolate ParijsAl1, read-out: MIC ParijsAl1
[25] = isolate Peru72012, read-out: MIC Peru72012

- pIC50 (M. mycetomatis MM55; [12]): 5.58
- pIC50 (M. mycetomatis MM55; MM55, Table 3, benzimidazole carbamates, M. mycetomatis, read-out: IC50): 5.58
- pIC50 (M. mycetomatis MM55; MM55, mean, read-out: IC50 mean): 5.58
- IC90 (M. mycetomatis MM55; MM55, read-out: IC90 mean): 9.09 µM
- pIC50 (M. mycetomatis MM55; [13]): 5.59
- IC90 (M. mycetomatis MM55; [14]): 17 µM
- pIC50 (M. mycetomatis MM55; [15]): 5.60
- IC90 (M. mycetomatis MM55; [16]): 4.6 µM
- pIC50 (M. mycetomatis MM55; [17]): 5.54
- IC90 (M. mycetomatis MM55; [18]): 5.68 µM
- MIC50 ([6]; Table 3 and Fig 5, benzimidazole carbamates, M. mycetomatis, read-out: MIC50): 0.5 µM (≈ 0.15 µg/mL)
- MIC50 [6, 19]: 2 µM (≈ 0.599 µg/mL)
- MIC50 ([6]; over the isolates tested, read-out: MIC50 mean): 0.5 µM (≈ 0.15 µg/mL)
- MIC [6, 20]: 0.5 µM (≈ 0.15 µg/mL)
- MIC [6, 21]: 0.5 µM (≈ 0.15 µg/mL)
- MIC [6, 22]: 0.5 µM (≈ 0.15 µg/mL)
- MIC [6, 23]: 0.5 µM (≈ 0.15 µg/mL)
- MIC ([6]; isolate P1, read-out: MIC P1): 0.5 µM (≈ 0.15 µg/mL)
- MIC [6, 24]: 0.5 µM (≈ 0.15 µg/mL)
- MIC [6, 25]: 0.5 µM (≈ 0.15 µg/mL)
- MIC ([6]; isolate So1, read-out: MIC So1): 2 µM (≈ 0.599 µg/mL)
- MIC ([6]; isolate i1, read-out: MIC i1): 0.25 µM (≈ 0.0748 µg/mL)
- MIC ([6]; isolate i11, read-out: MIC i11): 1 µM (≈ 0.299 µg/mL)
SMILES: COC(=O)Nc1nc2ccc(Sc3ccccc3)cc2[nH]1 [MMV003143, Fenbendazole]
- Inhibits growth of Madurella mycetomatis at 25 μM ([1]; 25 μM, selected if >75% (resazurin) or >80% (XTT) fungal growth inhibited): inhibit the growth
- activity at 25 µM ([1]; Madurella mycetomatis, mean, read-out: Percentage survival at 25um, 25 uM mean): 2.38%
- activity at 25 µM [1, 9]: -0.759%
- activity at 25 µM [1, 10]: 3.53%
- activity at 25 µM [1, 11]: 4.38%
- activity at 100 µM ([1]; Madurella mycetomatis, 100 uM, mean, read-out: Percentage survival at 100um, 100 uM mean): 7.16%
- activity at 100 µM ([1]; Madurella mycetomatis, 100 uM, replicate (first column), read-out: Percentage survival at 100um, 100 uM A): 0.376%
- activity at 100 µM ([1]; Madurella mycetomatis, 100 uM, replicate (second column), read-out: Percentage survival at 100um, 100 uM A): 9.19%
- activity at 100 µM ([1]; Madurella mycetomatis, 100 uM, replicate (third column), read-out: Percentage survival at 100um, 100 uM A): 11.9%
- Inhibits growth of Madurella pseudomycetomatis at 25 μM [2]: inhibit the growth
- Inhibits growth of Madurella tropicana at 25 μM [3]: inhibit the growth
- Inhibits growth of Falciformispora senegalensis at 25 μM [4]: inhibit the growth
- Inhibits growth of Medicopsis romeroi at 25 μM [5]: inhibit the growth
- Drug static or cidal (M. mycetomatis MM55): Static
- Larvae survival rate on day ten ([7]; 20 μM per larvae at 4, 28, 52 h after infection, day ten): 24.4%
- Effect on larvae survival Day 4 (words) ([7]; 20 μM per larvae, vs infected control, day four): Increase survival
- Effect on larvae survival Day 10 (words) ([7]; 20 μM per larvae, vs infected control, day ten): Increase survival
- Effect on larvae survival Day 10 (words) ([7]; 20 μM per larvae, vs infected control, day ten, listed as fenbendazole): able to increase larvae survival
- In vivo efficacy, Enhanced survival compared to control? ([7]; in vivo): yes *
- In vivo efficacy, Larvae survival % ([7]; in vivo): 24.4%

SMILES: Cc1cc(Nc2ccc(C(F)(F)F)cc2)n2ccnc2n1 [MMV011229]
- In vitro activity against M. mycetomatis [8]: no activity

- pIC50 (M. mycetomatis MM55; [12]): 5.31
- pIC50 (M. mycetomatis MM55; MM55, mean of replicates, read-out: IC50 mean): 5.31
- IC90 (M. mycetomatis MM55; MM55, mean of replicates, read-out: IC90 mean): 18.2 µM
- pIC50 (M. mycetomatis MM55; [13]): 5.57
- IC90 (M. mycetomatis MM55; [14]): 14 µM
- pIC50 (M. mycetomatis MM55; [15]): 5.53
- IC90 (M. mycetomatis MM55; [16]): 19.2 µM
- pIC50 (M. mycetomatis MM55; [17]): 5.05
- IC90 (M. mycetomatis MM55; [18]): 21.4 µM
- MIC50 [6, 19]: 4 µM (≈ 1.8 µg/mL)
- MIC [6, 20]: 8 µM (≈ 3.6 µg/mL)
- MIC [6, 21]: > 16 µM
- MIC [6, 22]: > 16 µM
- MIC [6, 23]: 8 µM (≈ 3.6 µg/mL)
- MIC ([6]; isolate P1, read-out: MIC P1): 4 µM (≈ 1.8 µg/mL)
- MIC [6, 24]: 2 µM (≈ 0.899 µg/mL)
- MIC [6, 25]: 2 µM (≈ 0.899 µg/mL)
- MIC ([6]; isolate So1, read-out: MIC So1): 4 µM (≈ 1.8 µg/mL)
- MIC ([6]; isolate i1, read-out: MIC i1): 2 µM (≈ 0.899 µg/mL)
- MIC ([6]; isolate i11, read-out: MIC i11): 16 µM (≈ 7.19 µg/mL)
- MIC50 ([6]; over ten M. mycetomatis isolates, read-out: MIC50 mean): 4 µM (≈ 1.8 µg/mL)
SMILES: Oc1c(C(Nc2nc3ccccc3s2)c2ccc(OC(F)F)cc2)ccc2cccnc12 (centres unmarked) [MMV019724]
- activity at 25 µM ([1]; Madurella mycetomatis, mean of replicates, read-out: Percentage survival at 25um, 25 uM mean): 9.22%
- activity at 25 µM [1, 9]: 14.5%
- activity at 25 µM [1, 10]: 1.51%
- activity at 25 µM [1, 11]: 11.7%
- activity at 100 µM ([1]; Madurella mycetomatis, 100 uM, mean of replicates, read-out: Percentage survival at 100um, 100 uM mean): 16.7%
- activity at 100 µM ([1]; Madurella mycetomatis, 100 uM, replicate 1, read-out: Percentage survival at 100um, 100 uM A (first replicate column)): 15.6%
- Percent fungal survival at 100 µM ([1]; Madurella mycetomatis, 100 uM, replicate 2, read-out: Percentage survival at 100um, 100 uM A (second replicate column)): 13.5%
- activity at 100 µM ([1]; Madurella mycetomatis, 100 uM, replicate 3, read-out: Percentage survival at 100um, 100 uM A (third replicate column)): 20.9%
- In vivo efficacy, Larvae survival % ([7]; G. mellonella larvae infected with M. mycetomatis): 13.3%
- In vivo efficacy, Enhanced survival compared to control? ([7]; in vivo): no
- Drug static or cidal (M. mycetomatis): Static

SMILES: Cc1ccc(NC(=O)c2cc(S(=O)(=O)NC(C)(C)C)ccc2C)nc1 [MMV020289]
- In vitro activity against M. mycetomatis [8]: no activity
